Source: US20240058481A1, “RADIOLABELLED COMPOUNDS FOR DIAGNOSING CHOLINERGIC NEURODEGENERATIVE DISEASES” (CENTRE NATIONAL DE LA RECHERCHE SCIENTIFIQUE, priority 2020, published 2024)

Columns and labels:
VAChT [1] = target: T1, VAChT (Rattus norvegicus, UniProt Q62666); assay: Radioligand ([3H]vesamicol) binding on rat brain membrane preparation, affinity for VAChT; conditions: rat brain membranes, mean ± standard deviation of 3 independent experiments, Cheng & Prussoff
T1 construct: The entire brain was sampled and dissected in different regions: cortex, striatum, hippocampus, thalamus and cerebellum; from tissue; host or cells: brain regions of male Wistar rats (in vivo tracer injection, ex vivo counting)
T1 sequence (Q62666 1-530): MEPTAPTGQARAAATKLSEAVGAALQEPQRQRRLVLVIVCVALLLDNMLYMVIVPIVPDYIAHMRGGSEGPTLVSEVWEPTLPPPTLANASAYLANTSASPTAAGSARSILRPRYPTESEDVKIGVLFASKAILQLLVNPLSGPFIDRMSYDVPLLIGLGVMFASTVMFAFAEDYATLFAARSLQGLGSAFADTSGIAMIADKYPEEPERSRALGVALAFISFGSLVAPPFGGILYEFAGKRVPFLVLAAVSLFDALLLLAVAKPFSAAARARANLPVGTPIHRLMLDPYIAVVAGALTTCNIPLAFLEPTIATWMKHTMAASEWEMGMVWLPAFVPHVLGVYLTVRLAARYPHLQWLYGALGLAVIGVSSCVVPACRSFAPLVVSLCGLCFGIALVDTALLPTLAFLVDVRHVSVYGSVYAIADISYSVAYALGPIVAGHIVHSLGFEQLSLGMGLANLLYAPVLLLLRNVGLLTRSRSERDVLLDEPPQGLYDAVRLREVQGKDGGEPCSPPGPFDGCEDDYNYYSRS
Experimental: Measurement of the affinity of the different compounds for VAChT was obtained by radioligand binding method on rat brain membrane preparation, following the method described in Scheunemann et al. (Bioorg Med Chem 2004;12:1459-65). The L-(−)-vesamicol was supplied by Sigma Aldrich (Saint-Quentin-Fallavier, France) and [^3H]vesamicol (specific activity 1705.7 GBq/mmol) by Perkin-Elmer (Courtaboeuf, France). The IC50 values were determined graphically for each compound and Ki (inhibition constant) was calculated following the method of Cheng & Prussoff (Biochemical pharmacology 1973;22:3099-108). The results are expressed as a mean of Ki values±standard deviation from the mean after 3 independent experiments.

VAChT [2] = target: T1, VAChT; assay: Biodistribution: cerebral accumulation of the tracers in the rat; type: in vivo; conditions: for Striatum/cerebellum accumulation ratio / Cerebral accumulation, cerebellum / Cerebral accumulation, striatum: 2 hours after i.v. injection of the tracer; for Cerebral accumulation, cerebellum / Cerebral accumulation, striatum: ± SEM, n=6/group
Experimental: Animals: The experiments were conducted in male rates of Wistar strain weighing 250-300 g (Breeding Centre R. Janvier, Le Genest St Isle, France). All procedures were carried out paying heed to European regulations on animal experimentation (2010/63/EU) with authorisation from the regional ethics committee on animal experiments: Comité Régional d'Ethique en Expérimentation Animale.
Biodistribution studies: The rats in the control group were given an i.v. injection of tracer (4-6 MBq in 0.3 mL) under isoflurane gas anaesthesia (n=6/group). In the VES group (n=6/group), injection of the tracer was preceded (5 min) by an i.v. injection of vesamicol (0.5 μmol/kg). The rats were sacrificed by decapitation 2 h after injection of the tracer. The entire brain was sampled and dissected in different regions: cortex, striatum, hippocampus, thalamus and cerebellum. Blood and bone fractions were also sampled. The biological samples were weighed, the radioactivity thereof was measured with a γ counter (2480 Gamma counter Wizard, Perkin Elmer), and the percentage of injected dose/g of tissue (% ID/g) was calculated.

| SMILES | Ki (VAChT [1]) [nM] | Striatum/cerebellum accumulation ratio (VAChT [2]; rat) | Cerebral accumulation, cerebellum (VAChT [2]; rat) [% ID/g] | Cerebral accumulation, striatum (VAChT [2]; rat) [% ID/g] | also measured |
| --- | --- | --- | --- | --- | --- |
| O[C@@H]1Cc2cccc(F)c2C[C@H]1N1CCC(c2ccccc2)CC1 [(−)-(R,R)-5-FBVM E1, (2R,3R)-5-Fluoro-3-(4-phenylpiperidin-1-yl)-1,2,3,4-tetrahydronaphthalen-2-ol] | 0.9 |  |  |  |  |
| O[C@H]1Cc2cccc([18F])c2C[C@@H]1N1CCC(c2ccccc2)CC1 [(+)-(S,S)-5-[^18F]FBVM ^18F E2] |  | 1.52 | 0.215 ± 0.011 | 0.327 ± 0.015 |  |
| O[C@@H]1Cc2cccc([18F])c2C[C@H]1N1CCC(c2ccccc2)CC1 [(−)-(R,R)-5-FBVM ^18F E1] |  | 5.84 | 0.232 ± 0.017 | 1.356 ± 0.069 | Reduction of accumulation in the striatum after (−)vesamicol pre-administration (VAChT [2]; rat, (−)vesamicol 0.5 μmole/kg, 5 minutes before injection of the tracer): 46% |
| O[C@H]1Cc2cccc(F)c2C[C@@H]1N1CCC(c2ccccc2)CC1 [(+)-(S,S)-5-FBVM. E2, (2S,3S)-5-Fluoro-3-(4-phenylpiperidin-1-yl)-1,2,3,4-tetrahydronaphthalen-2-ol] | 35 |  |  |  |  |

The next lines start with results.

| Ki (VAChT [1]) [nM] | Striatum/cerebellum accumulation ratio (VAChT [2]; rat) | Cerebral accumulation, cerebellum (VAChT [2]; rat) [% ID/g] | Cerebral accumulation, striatum (VAChT [2]; rat) [% ID/g] | SMILES | also measured |
| --- | --- | --- | --- | --- | --- |
| 1.3 |  |  |  | OC1Cc2cccc(F)c2CC1N1CCC(c2ccccc2)CC1 (racemic) [rac (+/−)-5-FBVM Trans, 5-Fluoro-3-(4-phenylpiperidin-1-yl)-1,2,3,4-tetrahydronaphthalen-2-ol] | In vivo stability (VAChT [2]; in vivo PET tracer in the rat): good; Passing through the blood-brain barrier (VAChT [2]; in vivo PET tracer in the rat): excellent |
| 61 ± 2.8 |  |  |  | OC1Cc2cccc(OCCF)c2CC1N1CCC(c2ccccc2)CC1 (single isomer, unassigned; (-)) [(−)-FEOBV, 5-fluoroethoxybenzovesamicol, reference compound] |  |
|  | 3.59 | 0.844 ± 0.025 | 0.235 ± 0.011 | OC1Cc2cccc(OCCF)c2CC1N1CCC(c2ccccc2)CC1 (stereo not shown) [[^18F]FEOBV, 5-fluoroethoxybenzovesamicol, reference compound] |  |
